The results in this text go back to US8653091B2, “Pyrid-2yl fused heterocyclic compounds, and compositions and uses thereof” (Evotec AG, priority 2007, dated 2014).

The IC50 is the concentration at which inhibition is half-maximal.

One test deals with P2X3 (Homo sapiens (Human), UniProt P56373). The test can be described thus: Calcium uptake assay (P2X antagonist assay), P2X3. The format is cell-based. The conditions noted are these: inhibition of agonist-induced calcium influx. The text has this:
(§1) Human P2X3 (Accession no. NM_002559), P2X2 (Accession no. NM_170682) and Rat P2X3 (Accession no. NM_031075) and P2X2 (Accession no. NM_053656) are cloned into a mammalian expression vector (e.g., pcDNA5/TO or pcDNA3 Invitrogen). The human P2X2/3 chimera clone is created as described by Neelands et al, and then cloned into an expression vector as above. Receptors are expressed in cells (e.g., HEK293 or 1321N1 (obtained from the ECACC)) via transient transfection using standard lipid mediated transfection, or by creation of stable transfectants for each receptor. For expression of the P2X2/3 heteromeric receptor, the P2X3 expression vector is stably transfected into a cell line already stably expressing P2X2. P2X2/3 heteromer function is isolated using pharmacological methods. Cell lines are maintained in DMEM+5% Glutamax, the appropriate level of selective antibiotic, and 10% heat inactivated FBS.
(§2) Functional activity of compounds at the P2X receptor is determined by measuring their ability to inhibit agonist-induced calcium influx. Compounds are tested for antagonist activity against the P2X2/3 chimera, the P2X3 homomer, or the P2X2/3 heteromer. At the start of each screening day, the agonist EC50 is determined. Compound % inhibition or IC50s are subsequently determined using a pre-determined agonist concentration (EC50-90 depending on cell line) as a stimulus. The agonists used are αβMeATP, ATP, or other ATP analogs. Compounds may be tested at concentrations ranging from 1 μM to 10 μM.
(§3) To test for antagonist activity, cells expressing the appropriate receptor are seeded onto 96 or 384 well plates 18-24 hours prior to assay. On the day of the assay, cells are loaded with calcium-sensitive fluorescent dye (e.g., Fluo-4 no wash reagent-Invitrogen cat#F36206, or the BD™ PBX Calcium Assay Kit—BD cat#640175) in Hank's Buffered Salt Solution (HESS) with up to 10 mM supplemental CaCl2. Plates are incubated at 37° C. and then equilibrated at room temperature. Antagonism of agonist-induced calcium influx is measured using a fluorescent imaging plate reader (e.g. FLIPR^TETRA, Molecular Devices, Sunnyvale, Calif.). The assay comprises two stages: a pre-treatment phase followed by a treatment phase. Compounds may be tested as follows: For the pre-treatment phase, 50 μL of 3× concentration of test compound in HBSS is added to cells containing 100 μL of dye loading media to achieve a final concentration of 1× test compound. For the treatment phase, at a set interval after pre-treatment (1-30 minutes), 50 μL of 1× test compound plus […] solution is added, resulting in a final concentration of 1× compound and 1× agonist. Fluorescence is measured at 0.1-3 second intervals—with an excitation wavelength of 494 nm and an emission wavelength of 515 nm. Responses are measured as (peak fluorescence after agonist addition) minus (baseline fluorescence prior to treatment). Percent inhibition is calculated as follows: […]
(§4) IC50 values are determined by analyzing dose response data in a 4 parameter logistic fit using GraphPad Prizm.

The target of a further test is P2X2/3 (Homo sapiens (Human), UniProt P56373+Q9UBL9). Briefly: Calcium uptake assay (P2X antagonist assay), P2X2/3. The format is cell-based. Conditions: inhibition of agonist-induced calcium influx.
P2X2/3, sequence (Q9UBL9 whole entry): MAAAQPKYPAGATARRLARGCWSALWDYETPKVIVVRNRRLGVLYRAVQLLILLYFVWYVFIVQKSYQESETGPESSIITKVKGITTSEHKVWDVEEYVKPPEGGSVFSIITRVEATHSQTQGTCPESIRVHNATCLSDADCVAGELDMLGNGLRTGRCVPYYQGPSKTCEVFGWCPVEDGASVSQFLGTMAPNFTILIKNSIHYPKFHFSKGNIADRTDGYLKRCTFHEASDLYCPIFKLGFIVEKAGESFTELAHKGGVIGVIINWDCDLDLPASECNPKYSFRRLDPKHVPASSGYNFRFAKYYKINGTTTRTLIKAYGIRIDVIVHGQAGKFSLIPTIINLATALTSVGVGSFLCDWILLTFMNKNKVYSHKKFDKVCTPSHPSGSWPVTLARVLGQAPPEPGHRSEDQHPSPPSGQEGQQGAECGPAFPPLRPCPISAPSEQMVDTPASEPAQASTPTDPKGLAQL
P2X2/3, sequence (P56373 whole entry): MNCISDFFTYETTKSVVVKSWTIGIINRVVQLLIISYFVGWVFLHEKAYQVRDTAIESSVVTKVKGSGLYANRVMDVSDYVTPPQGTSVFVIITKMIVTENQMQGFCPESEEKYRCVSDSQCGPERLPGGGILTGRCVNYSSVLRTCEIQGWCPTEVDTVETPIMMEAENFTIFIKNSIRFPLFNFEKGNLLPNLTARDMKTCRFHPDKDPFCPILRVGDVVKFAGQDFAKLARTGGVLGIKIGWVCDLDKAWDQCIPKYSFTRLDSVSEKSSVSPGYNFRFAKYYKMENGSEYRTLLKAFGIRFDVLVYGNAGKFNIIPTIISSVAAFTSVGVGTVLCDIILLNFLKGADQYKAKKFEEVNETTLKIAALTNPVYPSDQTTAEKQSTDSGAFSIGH
Description: as §1, §2, §3, §4

A value given as a limit tells only on which side of the number the result lay.

P2X3, sequence (P56373 whole entry): as above

With `Cc1ccc(N2CCc3ncnc(NC(C)c4cccc(F)c4)c3C2)nc1` (centres unmarked) [Compound 2, [1-(3-Fluoro-phenyl)-ethyl]-[6-(5-methyl-pyridin-2-yl)-5,6,7,8-tetrahydro-pyrido[4,3-d]pyrimidin-4-yl]-amine], the values for the IC50 at P2X3 and on P2X2/3 were 56 nM and 2430 nM, respectively.

`Cc1ccc(N2CCc3ncnc(NC(C)c4cccc(C(F)(F)F)c4)c3C2)nc1` (centres unmarked) [Compound 4, [6-(5-Methyl-pyridin-2-yl)-5,6,7,8-tetrahydro-pyrido[4,3-d]pyrimidin-4-yl]-[1-(3-trifluoromethyl-phenyl)-ethyl]-amine]: on P2X3, the 50% inhibitory concentration (IC50) was 301 nM.

In the case of `Cc1ccc(N2CCc3ncnc(NC(C)c4ccc(S(C)(=O)=O)cc4)c3C2)nc1` (centres unmarked) [Compound 5, [1-(4-Methanesulfonyl-phenyl)-ethyl]-[6-(5-methyl-pyridin-2-yl)-5,6,7,8-tetrahydro-pyrido[4,3-d]pyrimidin-4-yl]-amine], the IC50 worked out at 128 nM at P2X3 and 4250 nM at P2X2/3.

`Cc1ccc(N2CCc3ncnc(N[C@@H](C)c4ccc(Cl)cc4)c3C2)nc1` [Compound 6, [(S)-1-(4-Chloro-phenyl)-ethyl]-[6-(5-methyl-pyridin-2-yl)-5,6,7,8-tetrahydro-pyrido[4,3-d]pyrimidin-4-yl]-amine]: the IC50 on P2X3 is more than 7200 nM.

On to `Cc1ccc(N2CCc3ncnc(N[C@H](C)c4ccc(Cl)cc4)c3C2)nc1` [Compound 7, [(R)-1-(4-Chloro-phenyl)-ethyl]-[6-(5-methyl-pyridin-2-yl)-5,6,7,8-tetrahydro-pyrido[4,3-d]pyrimidin-4-yl]-amine], for which the IC50 at P2X3 turned out to be 48 nM; on P2X2/3, 1910 nM.

On to `Cc1ccc(N2CCc3ncnc(N[C@H](C)c4ccccc4)c3C2)nc1` [Compound 8, [6-(5-Methyl-pyridin-2-yl)-5,6,7,8-tetrahydro-pyrido[4,3-d]pyrimidin-4-yl]-((R)-1-phenyl-ethyl)-amine], for which the IC50 on P2X3 was found to be 73 nM; at P2X2/3, 2540 nM.

With `Cc1ccc(N2CCc3ncnc(NC(C)c4ccncc4)c3C2)nc1` (centres unmarked) [Compound 9, [6-(5-Methyl-pyridin-2-yl)-5,6,7,8-tetrahydro-pyrido[4,3-d]pyrimidin-4-yl]-(1-pyridin-4-yl-ethyl)-amine], the half-maximal inhibitory concentration (IC50) on P2X3 turned out to be 212 nM.

Take `Cc1ccc(N2CCc3ncnc(NC(C)c4ccccn4)c3C2)nc1` (centres unmarked) [Compound 10, [6-(5-Methyl-pyridin-2-yl)-5,6,7,8-tetrahydro-pyrido[4,3-d]pyrimidin-4-yl]-(1-pyridin-2-yl-ethyl)-amine]: the figures for the half-inhibitory concentration (IC50) at P2X3 and on P2X2/3 were 123 nM and 3970 nM, respectively.

Consider `Cc1ccc(N2CCc3ncnc(NC(C)c4cccnc4)c3C2)nc1` (centres unmarked) [Compound 11, [6-(5-Methyl-pyridin-2-yl)-5,6,7,8-tetrahydro-pyrido[4,3-d]pyrimidin-4-yl]-(1-pyridin-3-yl-ethyl)-amine], for which the results for the concentration for half-maximal inhibition (IC50) at P2X3 and at P2X2/3 were 63 nM and 2740 nM, respectively.

For the molecule `CCc1ccc(C(C)Nc2ncnc3c2CN(c2ccc(C)cn2)CC3)cc1` (centres unmarked) [Compound 13, [1-(4-Ethyl-phenyl)-ethyl]-[6-(5-methyl-pyridin-2-yl)-5,6,7,8-tetrahydro-pyrido[4,3-d]pyrimidin-4-yl]-amine], the IC50 at P2X3 was found to be 603 nM.

In the case of `COc1ccccc1C(C)Nc1ncnc2c1CN(c1ccc(C)cn1)CC2` (centres unmarked) [Compound 14, [1-(2-Methoxy-phenyl)-ethyl]-[6-(5-methyl-pyridin-2-yl)-5,6,7,8-tetrahydro-pyrido[4,3-d]pyrimidin-4-yl]-amine], the IC50 on P2X3 came out at 137 nM.

For the molecule `Cc1ccc(N2CCc3ncnc(NC(C)c4ccccc4Cl)c3C2)nc1` (centres unmarked) [Compound 15, [1-(2-Chloro-phenyl)-ethyl]-[6-(5-methyl-pyridin-2-yl)-5,6,7,8-tetrahydro-pyrido[4,3-d]pyrimidin-4-yl]-amine], the IC50 on P2X3 is 125 nM.

As to `Cc1ccc(N2CCc3ncnc(NC(C)c4cccc(Cl)c4)c3C2)nc1` (centres unmarked) [Compound 16, [1-(3-Chloro-phenyl)-ethyl]-[6-(5-methyl-pyridin-2-yl)-5,6,7,8-tetrahydro-pyrido[4,3-d]pyrimidin-4-yl]-amine], the IC50 on P2X3 is 119 nM.

With `Cc1ccc(N2CCc3ncnc(NC(C)c4ccc(C(F)(F)F)cc4)c3C2)nc1` (centres unmarked) [Compound 26, [6-(5-Methyl-pyridin-2-yl)-5,6,7,8-tetrahydro-pyrido[4,3-d]pyrimidin-4-yl]-[1-(4-trifluoromethyl-phenyl)-ethyl]-amine], at P2X3, the IC50 was determined as 245 nM.

Turning to `Cc1ccc(N2CCc3ncnc(NC(C)c4ccc(Cl)cc4Cl)c3C2)nc1` (centres unmarked) [Compound 27, [1-(2,4-Dichloro-phenyl)-ethyl]-[6-(5-methyl-pyridin-2-yl)-5,6,7,8-tetrahydro-pyrido[4,3-d]pyrimidin-4-yl]-amine], the half-inhibitory concentration (IC50) at P2X3 was determined as 415 nM.

In the case of `Cc1ccc(N2CCc3ncnc(NC(C)c4ccc(Br)cc4)c3C2)nc1` (centres unmarked) [Compound 28, [1-(4-Bromo-phenyl)-ethyl]-[6-(5-methyl-pyridin-2-yl)-5,6,7,8-tetrahydro-pyrido[4,3-d]pyrimidin-4-yl]-amine], the IC50 at P2X3 was 212 nM.

`CCC(Nc1ncnc2c1CN(c1ccc(C)cn1)CC2)c1ccccc1` (centres unmarked) [Compound 36, [6-(5-Methyl-pyridin-2-yl)-5,6,7,8-tetrahydro-pyrido[4,3-d]pyrimidin-4-yl]-(1-phenyl-propyl)-amine]: the 50% inhibitory concentration (IC50) on P2X3 is 397 nM.

For the molecule `Cc1ccc(N2CCc3ncnc(N[C@H](CO)c4ccccc4)c3C2)nc1` [Compound 37, (S)-2-[6-(5-Methyl-pyridin-2-yl)-5,6,7,8-tetrahydro-pyrido[4,3-d]pyrimidin-4-ylamino]-2-phenyl-ethanol], on P2X3, the IC50 worked out at 161 nM.

With `C[C@@H](Nc1ncnc2c1CN(c1ccc(Cl)cn1)CC2)c1ccc(Cl)cc1` [Compound 40, [(R)-1-(4-Chloro-phenyl)-ethyl]-[6-(5-chloro-pyridin-2-yl)-5,6,7,8-tetrahydro-pyrido[4,3-d]pyrimidin-4-yl]-amine], the IC50 at P2X3 turned out to be 344 nM.

As for `CC[C@@H](Nc1ncnc2c1CN(c1ccc(C)cn1)CC2)c1ccccc1` [Compound 42], the IC50 on P2X3 turned out to be 408 nM.

Regarding `COc1ccc([C@@H](C)Nc2ncnc3c2CN(c2ccc(C)cn2)CC3)cc1` [Compound 43, [(R)-1-(4-Methoxy-phenyl)-ethyl]-[6-(5-methyl-pyridin-2-yl)-5,6,7,8-tetrahydro-pyrido[4,3-d]pyrimidin-4-yl]-amine], on P2X3, the IC50 stood at 181 nM.

For `CC[C@H](Nc1ncnc2c1CN(c1ccc(C)cn1)CC2)c1ccccc1` [Compound 45, [6-(5-Methyl-pyridin-2-yl)-5,6,7,8-tetrahydro-pyrido[4,3-d]pyrimidin-4-yl]-((S)-1-phenyl-propyl)-amine], the IC50 on P2X3 is more than 10000 nM.

As for `C[C@H](Nc1ncnc2c1CN(c1ccc(Cl)cn1)CC2)c1ccc(C(F)(F)F)nc1` [Compound 51, (S)-6-(5-Chloropyridin-2-yl)-N-(1-(6-(trifluoromethyl)pyridin-3-yl)ethyl)-5,6,7,8-tetrahydropyrido[4,3-d]pyrimidin-4-amine], the half-inhibitory concentration (IC50) at P2X3 is more than 10000 nM.

`C[C@@H](Nc1ncnc2c1CN(c1ccc(Cl)cn1)CC2)c1ccc(C(F)(F)F)nc1` [Compound 52, [6-(5-Chloro-pyridin-2-yl)-5,6,7,8-tetrahydro-pyrido[4,3-d]pyrimidin-4-yl]-[(R)-1-(6-trifluoromethyl-pyridin-3-yl)-ethyl]-amine]: the IC50 at P2X3 came to 33 nM.

With `FC(F)(F)c1ccc([C@H](Nc2ncnc3c2CN(c2ccc(Cl)cn2)CC3)C2CC2)cn1` [Compound 53, [6-(5-Chloro-pyridin-2-yl)-5,6,7,8-tetrahydro-pyrido[4,3-d]pyrimidin-4-yl]-[(R)-cyclopropyl-(6-trifluoromethyl-pyridin-3-yl)-methyl]-amine], the IC50 at P2X3 is 3560 nM.

For the molecule `FC(F)(F)c1ccc([C@@H](Nc2ncnc3c2CN(c2ccc(Cl)cn2)CC3)C2CC2)cn1` [Compound 54, [6-(5-Chloro-pyridin-2-yl)-5,6,7,8-tetrahydro-pyrido[4,3-d]pyrimidin-4-yl]-[(S)-cyclopropyl-(6-trifluoromethyl-pyridin-3-yl)-methyl]-amine], the half-inhibitory concentration (IC50) on P2X2/3 is more than 10000 nM.
